Patent US9993554B2 (CENTRO NACIONAL DE INVESTIGACIONES ONCOLOGICAS (CNIO), priority 2010, dated 2018)

Columns and labels:
pre-brown adipocytes = assay: Immortalized neonatal (pre-)brown adipocytes treated with PI3K inhibitors: phospho-Akt and Ucp1 mRNA; assay type: cell-based, mice; conditions: 4 h
Method: Pre-brown adiposcytes were treated with Compound A or with the indicated PI3KI for 4 h. After this time, extracts were prepared for analysis of phospho-Akt (upper panels) or for analysis of Ucp1 mRNA levels (lower panels).
Mouse Embryonic Fibroblasts (MEFs) were isolated at E13.5 as previously described^42. For insulin stimulation, primary MEFs were serum starved (0% FBS) for 12 h, followed by 60 min incubation with PBS and then stimulated with 1 μg/ml of insulin (Sigma) during 30 min. For oncogenic transformation, primary MEFs were retrovirally transduced with pLXSN-neo-E6 and either pWZL-blast-middle-T (kindly provided by Jean Zhao, Dana-Farber Cancer Institute, Boston) or pBABE-puro-EGFRL858R (kindly provided by William Sellers and Matthew Meyerson, Addgene plasmid #11012)^43. After the corresponding drug selection 20,000 cells were plated in 10 cm diameter plates, and 2 weeks later were fixed and stained with 20% Giemsa. Immortalized brown adipocyte cell lines were obtained from the interscapular BAT of 3-5 day-old neonates, treated with and cultured as previously described^33. For immortalization, cultures were retrovirally transduced with Large-T antigen (in vector pBABE-puro, kindly provided by James de Caprio, Dana Farber Cancer Institute, Boston). For the reprogramming of 3T3-L1 adipocytes into brownadipocytes, we followed the method previously reported^50. Briefly, 3T3-L1 cells were retrovirally transduced with pBABE-puro-Cebpb (kindly provided by Roger R. Gomis, IRB, Barcelona). After drug selection with puromycin, cells were grown to confluence and subsequently cultured for 48 h with “differentiation medium” (DMEM 10% FBS, 20 nM insulin, 1 nM T3, 1 μM rosiglitazone, 0.5 mM isobutylmethylxanthine, 125 nM indomethacin, 5 μM dexamethasone). After this, cells were exposed to “maintenance medium” (DMEM 10% FBS, 20 nM insulin, 1 nM T3) for 4 days. For the experiment shown in FIG. 4d, differentiated 3T3-L1/Cebpβ or non-differentiated neonatal immortalized brown adipocytes cultures were PBS washed and treated with “regular medium” (DMEM 10% FBS) containing 10 μM forskolin (Sigma) and/or or 1 μM Compound A for 4 h.
Immortalized brown adipocytes were obtained from the interscapular BAT of 3-5 day-old neonates and immortalized by retroviral transduction of Large-T antigen (in vector pBABE-puro, kindly provided by James de Caprio, Dana Farber Cancer Institute, Boston). […]
For RNA analyses, total RNA from pre-brown adipocytes was extracted using TRIZOL (Invitrogen). Reverse transcription was performed using random primers and Ready-To-Go™ You-Prime First-Strand Beads (GE Healthcare). Quantitative real time-PCR was performed using DNA Master Sybr Green I mix (Applied Biosystems) in an ABI PRISM 7700 thermocycler (Applied Biosystem). […]

phospho-Ser-473-Akt = assay: AKT phosphorylation inhibition, Western blot cell assay; assay type: cell-based; conditions: Homo sapiens; read-out: IC50, cell assay (p-AKT Western Blot)
Method: The cell lines were obtained from the American Type Culture Collection (ATCC). U2OS (human osteosarcoma) was cultured in Dulbecco's modified Eagle's medium (DMEM). PC3 (human prostate carcinoma), MCF7 (human breast cardinoma), HCT116 (human colon carcinoma), 768-0 (human neuroblastoma), U251 (human glyoblastoma) were grown in RPMI. All media were supplemented with 10% fetal bovine serum (FBS) (Sigma) and antibiotics-antimycotics. Cell were maintained in a humidified incubator at 37° C. with 5% CO2 and passaged when confluent using trypsin/EDTA.
Subconfluent cells were incubated under different conditions and washed twice with TBS prior to lysis. Lysis buffer was added containing 50 mM Tris HCl, 150 mM NaCl, 1% NP-40, 2 mM Na3VO4, 100 mM NaF, 20 mM Na4P2O7 and protease inhibitor cocktail (Roche Molecular Biochemicals). The proteins were resolved on 10% SDS-PAGE and transferred to nitrocellulose membrane (Schleicher & Schuell, Dassel, Germany). The membranes were incubated overnight at 4° C. with antibodies specific for Akt, phospho-Ser-473-Akt (Cell Signaling Technology) and α-tubulin (Sigma), they were washed and then incubated with IRDye800 conjugated anti-mouse and Alexa Fluor 680 goat anti-rabbit IgG secondary antibodies. The bands were visualized using an Odyssey infrared imaging system (Li-Cor Biosciences).

[1] = system: brown adipose tissue (BAT) of C57BL6 mice; assay: In vivo inhibition of PI3K: mRNA levels in BAT; conditions: 15 mg/kg by gavage, 6 h, C57BL6 males
Method: For in vitro assays Compound A was added at a concentration of 1 μM. For in vivo assays, Compound A″ was administered orally by gavage at a dose of 15 mg/kg. Mice were sacrificed 6 h after and tissues were extracted and analyzed. Treated mice were C57BL6 males, 3 months old.
Total RNA from tissues or fibroblasts was extracted using TRIZOL (Invitrogen). Reverse transcription was performed using random primers and Ready-To-Go™ You-Prime First-Strand Beads (GE Healthcare). Quantitative real time-PCR was performed using DNA Master Sybr Green I mix (Applied Biosystems) in an ABI PRISM 7700 thermocycler (Applied Biosystem). Primer sequences are described in Supp.

SMILES: CS(=O)(=O)N1CCN(Cc2cn3c(Cl)c(-c4cnc(N)nc4)nc(N4CCOCC4)c3n2)CC1 [Compound A]
- inhibition of the phosphorylation of Akt (pre-brown adipocytes; 1 microM): measurable inhibition
- up-regulation of Ucp1 mRNA levels (pre-brown adipocytes; 10-20 microM): 8-20 fold
- inhibition of the phosphorylation of Akt (pre-brown adipocytes; 10 microM): complete inhibition
- expression of Ucp1 (pre-brown adipocytes; immortalized neonatal brown adipocytes (three independent lines), 1 μM): upregulated
- IC50 (phospho-Ser-473-Akt): 5 nM
- Lcad mRNA in the BAT [1]: significant upregulation
- Pgc1a mRNA in the BAT [1]: significant upregulation
- Ucp1 mRNA in the BAT [1]: significant upregulation
